Read-outs that look alike come from different tables or passages of the source.
What was measured:
[1] = ref [9],[10]; cited from earlier work
[2] = tested on: mNKCC2 isoform B; design: method as in ref Payne et al.[57]; Isenring et al.[58]; Plata et al.[59]; Carota et al.[56]; Lykke et al.[60]; Lykke et al.[29]; details: Xenopus oocytes; ref Payne et al.[57]; Isenring et al.[58]; Plata et al.[59]; Carota et al.[56]; Lykke et al.[60]; Lykke et al.[29]; read-out: IC50 (µM) NKCC2 (mB); cited from earlier work
[3] = tested on: NKCC2; design: method as in ref Palfrey et al.[48]; Schlatter et al.[23]; Frelin et al.[49]; O’Grady et al.[50]; Glanville et al.[51]; Hannaert et al.[52]; details: Rabbit kidney TAL; rat kidney TAL; NKCC2 isoforms not differentiated; ref Palfrey et al.[48]; Schlatter et al.[23]; Frelin et al.[49]; O’Grady et al.[50]; Glanville et al.[51]; Hannaert et al.[52]; cited from earlier work
[4] = tested on: hNKCC1; details: HEK-293 cells; activated state; NKCC1 isoforms not differentiated; ref Payne et al.[57]; Isenring et al.[58]; Plata et al.[59]; Carota et al.[56]; Lykke et al.[60]; Lykke et al.[29]; cited from earlier work
[5] = target: T1, hNKCC1B (Homo sapiens, UniProt P55011); assay: 86Rb+ uptake in hNKCC1B-expressing Xenopus laevis oocytes; assay type: cell-based; details: 5 min, corrected for uninjected oocytes, median and range of 3–7 experiments
T1 construct: expressed in transfected cells; host or cells: Xenopus laevis oocytes injected with cRNA (pXOOM vector)
T1 sequence (P55011 1-1196 isoform P55011-3): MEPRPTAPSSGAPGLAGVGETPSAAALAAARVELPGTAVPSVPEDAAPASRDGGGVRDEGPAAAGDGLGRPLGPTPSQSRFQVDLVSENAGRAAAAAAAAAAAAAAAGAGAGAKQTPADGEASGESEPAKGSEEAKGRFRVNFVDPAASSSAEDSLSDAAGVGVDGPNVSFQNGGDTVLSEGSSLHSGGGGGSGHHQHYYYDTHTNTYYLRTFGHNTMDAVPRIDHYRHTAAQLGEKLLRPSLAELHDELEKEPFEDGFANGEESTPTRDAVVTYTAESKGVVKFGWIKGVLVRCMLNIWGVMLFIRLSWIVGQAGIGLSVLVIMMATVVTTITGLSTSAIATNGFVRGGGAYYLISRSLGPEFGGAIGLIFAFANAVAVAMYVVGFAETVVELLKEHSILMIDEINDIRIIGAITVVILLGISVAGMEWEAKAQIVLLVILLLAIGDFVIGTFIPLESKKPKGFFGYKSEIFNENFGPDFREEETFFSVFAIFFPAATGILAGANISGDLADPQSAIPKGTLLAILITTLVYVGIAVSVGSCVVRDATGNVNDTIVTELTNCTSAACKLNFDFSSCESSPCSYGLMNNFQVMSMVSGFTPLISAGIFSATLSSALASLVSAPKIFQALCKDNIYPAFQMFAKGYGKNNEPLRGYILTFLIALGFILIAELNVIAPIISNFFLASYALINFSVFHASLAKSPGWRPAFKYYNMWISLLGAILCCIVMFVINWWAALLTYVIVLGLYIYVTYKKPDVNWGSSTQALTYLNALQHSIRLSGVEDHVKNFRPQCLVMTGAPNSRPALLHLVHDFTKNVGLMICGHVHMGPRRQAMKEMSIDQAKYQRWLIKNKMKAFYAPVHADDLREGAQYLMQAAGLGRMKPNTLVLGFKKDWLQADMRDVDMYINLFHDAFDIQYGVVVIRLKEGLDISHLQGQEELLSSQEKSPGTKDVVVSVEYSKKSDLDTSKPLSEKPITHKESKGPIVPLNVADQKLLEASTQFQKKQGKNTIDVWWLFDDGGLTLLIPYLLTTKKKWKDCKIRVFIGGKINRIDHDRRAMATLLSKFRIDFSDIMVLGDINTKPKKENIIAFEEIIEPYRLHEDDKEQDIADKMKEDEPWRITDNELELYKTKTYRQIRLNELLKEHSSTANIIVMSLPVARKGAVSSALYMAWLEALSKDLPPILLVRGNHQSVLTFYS
Text: Human NKCC1A (NM_001046, obtained from Prof. Biff Forbush, Yale School of Medicine, CT) and NKCC1B (prepared by site-directed mutagenesis from hNKCC1A as described below) were subcloned into the oocytes expression vector pXOOM, linearized downstream from the poly-A segment, and in vitro transcribed using T7-mMessage Machine according to manufacturer’s instructions (Ambion, Austin, TX). cRNA was then extracted with MEGAclear (Ambion, Austin, TX) and micro-injected into defolliculated Xenopus laevis oocytes (25 ng RNA/oocyte). The oocytes were kept in Kulori medium (in mM: 90 NaCl, 1 KCl, 1 CaCl2, 1 MgCl2, 5 Hepes, pH 7.4, 182 mOsm) for 5–6 days at 19 °C prior to experiments.
To activate NKCC1A and NKCC1B prior to the ^86Rb^+ uptake measurements aimed at measuring NKCC-mediated fluxes, hNKCC1A- or hNKCC1B-expressing oocytes or uninjected control oocytes (4–13 oocytes per well) were pre-incubated for 30 min at room temperature in a K^+-free solution (containing in mM: 5 choline chloride, 95 NaCl, 1 MgCl2, 1 CaCl2, 10 Hepes, pH 7.4, 207 mOsm), which causes shrinkage of the oocyte and thus activation of NKCC1A[22]. […]
Significance of differences in transport activity of hNKCC1A or hNKCC1B expressing oocytes vs. uninjected oocytes were analyzed by the Kruskal-Wallis test followed by Dunn’s multiple comparisons test. […]

[6] = tested on: hNKCC1; design: method as in Gill et al.[47]; details: Rb+ flux, Ion Channel Reader technology, HEK cell line; ref Gill et al.[47]; cited from earlier work

IC50 [5]: 0.842 µM
SMILES: CCCCNc1cc(C(=O)O)cc(S(N)(=O)=O)c1Oc1ccccc1 [Bumetanide]
plasma protein binding [1]: > 95%
IC50 [2]: 0.6 µM
IC50 [3]: 0.2 to 0.33 µM
IC50 [4]: 0.16 to 0.28 µM
IC50 [6]: 1160 nM

Reference: PMC6026185 (Scientific Reports, 2018)
